Assay results: PMC11724075, “Small-molecule-induced ERBB4 activation to treat heart failure” (Nature Communications, 2025)
Values joined by “and” are separate entries in the source; they are usually repeats but may differ in a detail not shown here. Equal values may be shown once.

The compounds below were run against T1, ERBB4/ERBB4 (Homo sapiens, UniProt Q15303) (assay: PathHunter U2OS ERBB4/ERBB4 dimerization assay, 96-well dose-response). Conditions: not given.
T1 construct: host or cells: U2OS (osteosarcoma cells), PathHunter engineered line
T1 sequence (Q15303 26-1308): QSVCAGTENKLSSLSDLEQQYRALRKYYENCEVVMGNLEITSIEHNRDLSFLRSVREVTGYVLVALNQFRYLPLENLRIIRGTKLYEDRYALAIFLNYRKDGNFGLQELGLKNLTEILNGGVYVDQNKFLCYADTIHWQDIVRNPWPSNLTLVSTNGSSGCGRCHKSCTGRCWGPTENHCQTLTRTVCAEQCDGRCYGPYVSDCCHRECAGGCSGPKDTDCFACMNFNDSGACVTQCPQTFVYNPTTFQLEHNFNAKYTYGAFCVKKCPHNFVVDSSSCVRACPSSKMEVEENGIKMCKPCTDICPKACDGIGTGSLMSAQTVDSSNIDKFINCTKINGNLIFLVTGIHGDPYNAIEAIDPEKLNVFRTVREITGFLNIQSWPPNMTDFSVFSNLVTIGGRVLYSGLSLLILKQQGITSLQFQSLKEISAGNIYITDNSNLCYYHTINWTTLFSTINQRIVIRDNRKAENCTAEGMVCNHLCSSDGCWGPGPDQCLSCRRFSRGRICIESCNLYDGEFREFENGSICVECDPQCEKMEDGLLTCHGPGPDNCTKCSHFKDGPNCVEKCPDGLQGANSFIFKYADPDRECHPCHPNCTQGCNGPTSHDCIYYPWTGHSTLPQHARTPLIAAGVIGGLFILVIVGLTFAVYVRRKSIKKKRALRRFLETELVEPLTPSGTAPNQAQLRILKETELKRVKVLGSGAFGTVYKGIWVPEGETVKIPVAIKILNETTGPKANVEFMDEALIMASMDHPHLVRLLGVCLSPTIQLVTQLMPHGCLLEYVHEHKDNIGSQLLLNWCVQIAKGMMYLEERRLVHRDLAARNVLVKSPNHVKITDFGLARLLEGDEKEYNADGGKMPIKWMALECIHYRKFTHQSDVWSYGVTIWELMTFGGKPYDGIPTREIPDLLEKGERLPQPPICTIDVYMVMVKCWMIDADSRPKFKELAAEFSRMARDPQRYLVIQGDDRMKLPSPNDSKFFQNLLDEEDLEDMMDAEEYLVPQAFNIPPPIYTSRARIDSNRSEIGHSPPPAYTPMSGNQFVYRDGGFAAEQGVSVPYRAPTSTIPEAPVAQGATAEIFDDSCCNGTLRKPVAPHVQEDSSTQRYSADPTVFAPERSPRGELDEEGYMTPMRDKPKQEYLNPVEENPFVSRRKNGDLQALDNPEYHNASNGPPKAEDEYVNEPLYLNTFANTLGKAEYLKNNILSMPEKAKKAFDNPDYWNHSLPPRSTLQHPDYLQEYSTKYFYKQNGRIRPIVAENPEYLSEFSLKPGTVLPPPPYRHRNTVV
T1 sequence (Q15303 26-1308): as above
Assay type: cell-based
Description: PathHunter U2OS ERBB4/ERBB4 (osteosarcoma cells; Eurofins, 93-0961C3), U2OS ERBB2/ERBB4 (osteosarcoma cells; Eurofins, 493-0960C3), ERBB2/ERBB3 (osteosarcoma cells; Eurofins, 93-1042C3) and ERBB1/ERBB1 (osteosarcoma cells; Eurofins, 93-0989C3) dimerization cell lines were cultured according to the manufacturer’s instructions. Briefly, cells were cultured in Cell Culture Reagent 103 (Eurofins, 92-3103 G) supplemented with 250 µg/mL Hygromycin B (Eurofins, 92-0029) and 500 µg/mL G418 (Eurofins, 92-0030), and were maintained at 37 °C in humidified atmosphere of 5% CO2. HCFs (Innoprot, P10454) were cultured in fibroblast medium (Innoprot, P60108) supplemented with 10% (v/v) fetal bovine serum (FBS, Innoprot), 10% (v/v) fibroblast growth supplement (Innoprot), and 1% (v/v) penicillin/streptomycin solution (Innoprot). iAMs[33] (kindly provided by LUMC) were cultured in Advanced DMEM F-12 (Thermo Fisher Scientific, 12634028) supplemented with 2% (v/v) heat-inactivated FBS (Thermo Fisher Scientific, 10270106), 1% (v/v) penicillin/streptomycin (10,000 units/mL and 10 mg/mL respectively, Thermo Fisher Scientific, 15140122), 1× GlutaMAX (Thermo Fisher Scientific, 35050061), and 100 ng/mL doxycycline (Tocris, 4090) for proliferation. To induce differentiation, iAMs were transferred to medium without doxycycline.
U2OS ERBB4/ERBB4 dimerization cells were seeded at a density of 5 × 10^4 cells/well in 100 µL Cell Plating 0 Reagent, in white 96-well plates (PerkinElmer, 6005680) and incubated for 24 h at 37 °C, 5% CO2. […] Next, 110 µL PathHunter Flash Detection Reagent was added to each well and incubated at RT for 1 h after which the luminescence signal was measured using the Luminoskan Ascent (Thermo Fisher Scientific). […] The same experimental set-up was used for the U2OS ERBB2/ERBB4, U2OS ERBB2/ERBB3 and U2OS ERBB1/ERBB1 dimerization cell lines.
Category Parameter Description
Assay Type of assay PathHunter Dimerization assays provide a robust, highly sensitive and easy-to-use cell-based functional assay to study various protein activities in a cell. The assay s use
Enzyme Fragment Complementation technology, where the b-galactosidase (b-gal) enzyme is split into two fragments, ProLink and Enzyme Acceptor. Independently these fragments have no b-gal activity. However, when forced to complement through protein-protein interactions, they form an active b-gal enzyme. The PathHunter Dimerization assay detects ligand induced dimerization of two subunits of a receptor-dimer pair. The cells have been engineered to co-express one receptor subunit (ERBB4) fused to Enzyme
Donor, and a second dimer partner (ERBB4) fused to Enzyme Acceptor. Binding of an agonist to one receptor subunit induces it to interact with its dimer partner, forcing complementation of the two enzyme […]
functional enzyme that hydrolyzes a substrate to generate a chemiluminescent signal.
Target ErbB4 receptor (RTK receptor)
Primary measurement Detection of chemiluminescent signal, induced by small-molecule ErbB4 agonists
Key reagents PathHunter Dimerization ErbB4/ErbB4 Cell
Line (93-0961C3) - PathHunter Flash
Detection Kit (03 -0247) - AssayComplete Cell
AssayComplete Cell Detachment Reagent
(92-0009) - AssayComplete Thawing Reagent
T3 (92-4103TR) - AssayComplete Freezing
Assay protocol https://www.discoverx.com/catalog/pathhun

Row | SMILES | induction of ERBB4 dimerization (in words)
1 | Cc1sc2nc(SCC(=O)NC(C)(C#N)C(C)C)n(C3CCCC3)c(=O)c2c1C (stereo not shown) [EF-8] | induced ERBB4 dimerization in a concentration-dependent manner

Same assay, conditions: 3.125e-8 M; relative to signal with 0.1 µM NRG1; single biological replicates

Row | SMILES | ERBB4/ERBB4 dimerization signal
2 | CC(=O)c1ccc(NC(=O)C(C)Sc2nc3ccccc3c(=O)n2C2CCCC2)cc1 (stereo not shown) [EF-2] | 0
3 | CC(Sc1nc2ccccc2c(=O)n1C1CCCC1)C(=O)N(C)c1ccccc1 (stereo not shown) [EF-3] | 0
4 | CC(C)n1c(SC(C(=O)NC2CC2)c2ccccc2)nc2sc3c(c2c1=O)CCC3 (stereo not shown) [EF-4] | 0
5 | Cc1sc2nc(SCC(=O)NC(C)(C#N)C(C)C)n(C3CCCC3)c(=O)c2c1C (stereo not shown) [EF-8] | 0

Same assay, conditions: 6.25e-8 M; relative to signal with 0.1 µM NRG1; single biological replicates

Row | SMILES | ERBB4/ERBB4 dimerization signal
6 | CC(=O)c1ccc(NC(=O)C(C)Sc2nc3ccccc3c(=O)n2C2CCCC2)cc1 (stereo not shown) [EF-2] | 2.15 and 4.6 and 0.468 and 1.148
7 | CC(Sc1nc2ccccc2c(=O)n1C1CCCC1)C(=O)N(C)c1ccccc1 (stereo not shown) [EF-3] | -1.21 and 2.4 and -0.0725
8 | CC(C)n1c(SC(C(=O)NC2CC2)c2ccccc2)nc2sc3c(c2c1=O)CCC3 (stereo not shown) [EF-4] | -0.82 and -1.6 and 0.98 and -1.282 and -1.385
9 | Cc1sc2nc(SCC(=O)NC(C)(C#N)C(C)C)n(C3CCCC3)c(=O)c2c1C (stereo not shown) [EF-8] | -2.398 and 2.948 and -2.16 and -2.631

Same assay, conditions: 1.25e-7 M; relative to signal with 0.1 µM NRG1; single biological replicates

Row | SMILES | ERBB4/ERBB4 dimerization signal
10 | CC(=O)c1ccc(NC(=O)C(C)Sc2nc3ccccc3c(=O)n2C2CCCC2)cc1 (stereo not shown) [EF-2] | 3.45 and 2.29 and 0.641 and 1.187
11 | CC(Sc1nc2ccccc2c(=O)n1C1CCCC1)C(=O)N(C)c1ccccc1 (stereo not shown) [EF-3] | -1.21 and 2.26 and 0.6885
12 | CC(C)n1c(SC(C(=O)NC2CC2)c2ccccc2)nc2sc3c(c2c1=O)CCC3 (stereo not shown) [EF-4] | -1.06 and 0.03 and 3.38 and -1.705 and 1.217
13 | Cc1sc2nc(SCC(=O)NC(C)(C#N)C(C)C)n(C3CCCC3)c(=O)c2c1C (stereo not shown) [EF-8] | -3.058 and 0.945 and -1.747 and 1.488

Same assay, conditions: 2.5e-7 M; relative to signal with 0.1 µM NRG1; single biological replicates

Row | SMILES | ERBB4/ERBB4 dimerization signal
14 | CC(=O)c1ccc(NC(=O)C(C)Sc2nc3ccccc3c(=O)n2C2CCCC2)cc1 (stereo not shown) [EF-2] | 4.04 and 4.36 and 1.213 and -1.342
15 | CC(Sc1nc2ccccc2c(=O)n1C1CCCC1)C(=O)N(C)c1ccccc1 (stereo not shown) [EF-3] | -1.52 and 3.09 and -0.0015
16 | CC(C)n1c(SC(C(=O)NC2CC2)c2ccccc2)nc2sc3c(c2c1=O)CCC3 (stereo not shown) [EF-4] | 0.06 and -1.83 and 3.79 and -0.533 and -0.2429
17 | Cc1sc2nc(SCC(=O)NC(C)(C#N)C(C)C)n(C3CCCC3)c(=O)c2c1C (stereo not shown) [EF-8] | -2.005 and -2.555 and -0.053 and 1.532

Same assay, conditions: 5e-7 M; relative to signal with 0.1 µM NRG1; single biological replicates

Row | SMILES | ERBB4/ERBB4 dimerization signal
18 | CC(=O)c1ccc(NC(=O)C(C)Sc2nc3ccccc3c(=O)n2C2CCCC2)cc1 (stereo not shown) [EF-2] | 1.37 and 3.12 and 2.49 and 0.6545
19 | CC(Sc1nc2ccccc2c(=O)n1C1CCCC1)C(=O)N(C)c1ccccc1 (stereo not shown) [EF-3] | -1.8 and 4 and -1.488
20 | CC(C)n1c(SC(C(=O)NC2CC2)c2ccccc2)nc2sc3c(c2c1=O)CCC3 (stereo not shown) [EF-4] | 0.37 and -1.62 and 3.34 and -1.138 and -0.1012
21 | Cc1sc2nc(SCC(=O)NC(C)(C#N)C(C)C)n(C3CCCC3)c(=O)c2c1C (stereo not shown) [EF-8] | -2.09 and -2.305 and 2.13 and 0.7408

Same assay, conditions: 1e-6 M; relative to signal with 0.1 µM NRG1; single biological replicates

Row | SMILES | ERBB4/ERBB4 dimerization signal
22 | CC(=O)c1ccc(NC(=O)C(C)Sc2nc3ccccc3c(=O)n2C2CCCC2)cc1 (stereo not shown) [EF-2] | 2.5 and 5.02 and 2.238 and 2.209
23 | CC(Sc1nc2ccccc2c(=O)n1C1CCCC1)C(=O)N(C)c1ccccc1 (stereo not shown) [EF-3] | -0.91 and 4.12 and -1.3115
24 | CC(C)n1c(SC(C(=O)NC2CC2)c2ccccc2)nc2sc3c(c2c1=O)CCC3 (stereo not shown) [EF-4] | -0.43 and -1.64 and 5.89 and 0.03433 and 4.575
25 | Cc1sc2nc(SCC(=O)NC(C)(C#N)C(C)C)n(C3CCCC3)c(=O)c2c1C (stereo not shown) [EF-8] | -1.274 and -2.984 and 1.804 and 0.1664

Same assay, conditions: 2e-6 M; relative to signal with 0.1 µM NRG1; single biological replicates

Row | SMILES | ERBB4/ERBB4 dimerization signal
26 | CC(=O)c1ccc(NC(=O)C(C)Sc2nc3ccccc3c(=O)n2C2CCCC2)cc1 (stereo not shown) [EF-2] | 4.33 and 4.8 and 3.759 and 4.682
27 | CC(Sc1nc2ccccc2c(=O)n1C1CCCC1)C(=O)N(C)c1ccccc1 (stereo not shown) [EF-3] | -2.34 and 4.47 and -0.737
28 | CC(C)n1c(SC(C(=O)NC2CC2)c2ccccc2)nc2sc3c(c2c1=O)CCC3 (stereo not shown) [EF-4] | 0.21 and 0.63 and 6.37 and 2.286 and 6.859
29 | Cc1sc2nc(SCC(=O)NC(C)(C#N)C(C)C)n(C3CCCC3)c(=O)c2c1C (stereo not shown) [EF-8] | -1.378 and -1.267 and 1.368 and 2.734

Same assay, conditions: 4e-6 M; relative to signal with 0.1 µM NRG1; single biological replicates

Row | SMILES | ERBB4/ERBB4 dimerization signal
30 | CC(=O)c1ccc(NC(=O)C(C)Sc2nc3ccccc3c(=O)n2C2CCCC2)cc1 (stereo not shown) [EF-2] | 3.95 and 4.91 and 4.578 and 5.322
31 | CC(Sc1nc2ccccc2c(=O)n1C1CCCC1)C(=O)N(C)c1ccccc1 (stereo not shown) [EF-3] | -2.82 and 3.65 and 0.377
32 | CC(C)n1c(SC(C(=O)NC2CC2)c2ccccc2)nc2sc3c(c2c1=O)CCC3 (stereo not shown) [EF-4] | 2.3 and -0.27 and 8.83 and 5.465 and 8.345
33 | Cc1sc2nc(SCC(=O)NC(C)(C#N)C(C)C)n(C3CCCC3)c(=O)c2c1C (stereo not shown) [EF-8] | -1.56 and -0.487 and 3.629 and 7.521

Same assay, conditions: 8e-6 M; relative to signal with 0.1 µM NRG1; single biological replicates

Row | SMILES | ERBB4/ERBB4 dimerization signal
34 | CC(=O)c1ccc(NC(=O)C(C)Sc2nc3ccccc3c(=O)n2C2CCCC2)cc1 (stereo not shown) [EF-2] | 8.72 and 7.12 and 6.167 and 6.988
35 | CC(Sc1nc2ccccc2c(=O)n1C1CCCC1)C(=O)N(C)c1ccccc1 (stereo not shown) [EF-3] | -2.1 and 3.98 and 3.507
36 | CC(C)n1c(SC(C(=O)NC2CC2)c2ccccc2)nc2sc3c(c2c1=O)CCC3 (stereo not shown) [EF-4] | 3.99 and 2.72 and 14.5 and 12.0003 and 11.0326
37 | Cc1sc2nc(SCC(=O)NC(C)(C#N)C(C)C)n(C3CCCC3)c(=O)c2c1C (stereo not shown) [EF-8] | -0.129 and 2.382 and 5.053 and 7.016

Same assay, conditions: 1.6e-5 M; relative to signal with 0.1 µM NRG1; single biological replicates

Row | SMILES | ERBB4/ERBB4 dimerization signal
38 | CC(=O)c1ccc(NC(=O)C(C)Sc2nc3ccccc3c(=O)n2C2CCCC2)cc1 (stereo not shown) [EF-2] | 9.4 and 10.69 and 8.539 and 7.868
39 | CC(Sc1nc2ccccc2c(=O)n1C1CCCC1)C(=O)N(C)c1ccccc1 (stereo not shown) [EF-3] | -0.15 and 7.88 and 11.189
40 | CC(C)n1c(SC(C(=O)NC2CC2)c2ccccc2)nc2sc3c(c2c1=O)CCC3 (stereo not shown) [EF-4] | 10.7 (2×) and 28.43 and 14.396 and 16.9022
41 | Cc1sc2nc(SCC(=O)NC(C)(C#N)C(C)C)n(C3CCCC3)c(=O)c2c1C (stereo not shown) [EF-8] | 5.735 and 10.567 and 10.209 and 8.435

Same assay, conditions: 3.2e-5 M; relative to signal with 0.1 µM NRG1; single biological replicates

Row | SMILES | ERBB4/ERBB4 dimerization signal
42 | CC(=O)c1ccc(NC(=O)C(C)Sc2nc3ccccc3c(=O)n2C2CCCC2)cc1 (stereo not shown) [EF-2] | 12.78 and 12.75 and 7.517 and 9.504
43 | CC(Sc1nc2ccccc2c(=O)n1C1CCCC1)C(=O)N(C)c1ccccc1 (stereo not shown) [EF-3] | 10.32 and 12.81 and 17.0765
44 | CC(C)n1c(SC(C(=O)NC2CC2)c2ccccc2)nc2sc3c(c2c1=O)CCC3 (stereo not shown) [EF-4] | 14.22 and 10.37 and 32.96 and 14.248 and 12.7415
45 | Cc1sc2nc(SCC(=O)NC(C)(C#N)C(C)C)n(C3CCCC3)c(=O)c2c1C (stereo not shown) [EF-8] | 13.012 and 24.912 and 17.432

Same assay, conditions: Fig. 1 panels b, f-l

Row | SMILES | EC50
46 | CC(=O)c1ccc(NC(=O)C(C)Sc2nc3ccccc3c(=O)n2C2CCCC2)cc1 (stereo not shown) [EF-2] | 3.3 µM
47 | CC(Sc1nc2ccccc2c(=O)n1C1CCCC1)C(=O)N(C)c1ccccc1 (stereo not shown) [EF-3] | 15.9 µM
48 | CC(C)n1c(SC(C(=O)NC2CC2)c2ccccc2)nc2sc3c(c2c1=O)CCC3 (stereo not shown) [EF-4] | 7.9 µM
49 | Cc1sc2nc(SCC(=O)NC(C)(C#N)C(C)C)n(C3CCCC3)c(=O)c2c1C (stereo not shown) [EF-8] | 14 µM
